Test results from US10975037B2 (priority 2018, dated 2021).
Like-named read-outs stand apart in the source and are kept apart here. Marks after values point to notes of the source that are not given here.

Legend:
[1] = biological target: human RORγt ligand binding domain (RORγt LBD) (Homo sapiens (Human), UniProt P51449); assay: RORγt ThermoFluor® assay (thermal shift binding); conditions: read-out: ThermoFluor® Assay, Kd
Method in brief: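 Thermal shift with 0.065 mg/mL RORγt LBD and 60 μM 1,8-ANS in 100 mM Hepes pH 7.0, 10 mM NaCl, 2.5 mM GSH, 0.002% Tween-20.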

full-length human RORγt = full-length human RORγt (Homo sapiens (Human), UniProt P51449); assay: RORγt (full-length human) reporter assay, conditions A or B, HEK293T cells; type: cell-based; conditions: for inhibition at 6 µM: read-out: RORγt (FL) Reporter Assay A or B, % inhibition @ 6 μM; for inhibition at 6 µM / RORγt (FL) Reporter Assay A or B, % inhibition @ 6 μM: 6 μM compound concentration
Method in brief: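 After 16–20 h, dual firefly/Renilla luciferase luminescence was read. Firefly signal was normalized to DMSO and saturating reference compound, then to Renilla, and fitted for IC50; % inhibition is versus DMSO.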

[2] = HEK-293T, 2 μM compound concentration, read-out: RORγt (FL) Reporter Assay A or B, % inhibition
[3] = RORγt (FL) Reporter Assay A or B, IC50, HEK293T cells
[4] = HEK-293T, read-out: RORγt (FL) Reporter Assay A or B, % inhibition
[5] = HEK293T cells, read-out: RORγt (FL) Reporter Assay A or B, IC50

Chain of full-length human RORγt (P51449 other isoform, or with tags, fused parts or gaps): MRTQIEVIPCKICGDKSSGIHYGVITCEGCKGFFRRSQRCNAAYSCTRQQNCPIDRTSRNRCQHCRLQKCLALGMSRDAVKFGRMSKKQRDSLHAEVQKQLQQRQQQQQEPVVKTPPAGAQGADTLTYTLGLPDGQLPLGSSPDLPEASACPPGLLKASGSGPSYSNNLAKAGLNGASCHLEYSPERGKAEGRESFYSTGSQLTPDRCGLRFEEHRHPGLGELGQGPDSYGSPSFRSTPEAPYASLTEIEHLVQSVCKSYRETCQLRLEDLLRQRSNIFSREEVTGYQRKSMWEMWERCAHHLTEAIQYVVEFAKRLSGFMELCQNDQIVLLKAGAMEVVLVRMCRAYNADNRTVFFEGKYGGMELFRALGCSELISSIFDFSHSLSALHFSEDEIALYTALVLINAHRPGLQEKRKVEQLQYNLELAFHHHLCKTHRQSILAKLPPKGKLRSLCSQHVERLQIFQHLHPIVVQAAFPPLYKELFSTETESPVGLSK
Chain of human RORγt ligand binding domain (RORγt LBD) (P51449 other isoform, or with tags, fused parts or gaps): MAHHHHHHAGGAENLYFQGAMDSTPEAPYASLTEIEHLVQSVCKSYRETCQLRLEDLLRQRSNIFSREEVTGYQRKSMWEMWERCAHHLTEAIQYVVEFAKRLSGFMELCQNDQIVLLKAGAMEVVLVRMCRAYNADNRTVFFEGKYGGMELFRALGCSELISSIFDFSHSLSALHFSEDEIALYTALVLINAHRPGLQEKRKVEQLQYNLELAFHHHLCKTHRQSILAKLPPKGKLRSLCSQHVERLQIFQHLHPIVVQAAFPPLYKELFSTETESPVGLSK

Row | Kd [1] [µM] | inhibition at 2 µM (full-length human RORγt; [2]) [%] | IC50 (full-length human RORγt; [3]) [µM] | Compound | further results
1 | 0.0054 | 101 | 0.02 | CCn1nc(C(=O)NC[C@H]2CC[C@H](S(C)(=O)=O)CC2)c(Cl)c1-c1c(F)cc(N[C@H](C)C(F)(F)F)cc1F [Example 196, 4-Chloro-5-(2,6-difluoro-4-(((R)-1,1,1-trifluoropropan-2-yl)amino)phenyl)-1-ethyl-N-(((1r,4R)-4-(methylsulfonyl)cyclohexyl)methyl)-1H-pyrazole-3-carboxamide] | 
2 | 0.002 |  | 0.021 | CCn1nc(C(=O)NC[C@H]2CC[C@H](S(C)(=O)=O)CC2)c(Cl)c1-c1c(F)cc(CC(C)C(F)(F)F)cc1F (stereo partly drawn) [Example 197, 4-Chloro-5-(2,6-difluoro-4-(3,3,3-trifluoro-2-methylpropyl)phenyl)-1-ethyl-N-(((1r,4r)-4-(methylsulfonyl)cyclohexyl)methyl)-1H-pyrazole-3-carboxamide] | inhibition at 0.67 µM (full-length human RORγt; HEK-293T, 0.67 μM compound concentration (footnote ****), read-out: RORγt (FL) Reporter Assay A or B, % inhibition): 70%
3 | 0.013 | 96 | 0.078 | COc1cc(CC(C)C(F)(F)F)ccc1-c1c(Cl)c(C(=O)NC[C@H]2CC[C@H](S(C)(=O)=O)CC2)nn1CCO (stereo partly drawn) [Example 200, 4-Chloro-1-(2-hydroxyethyl)-5-(2-methoxy-4-(3,3,3-trifluoro-2-methylpropyl)phenyl)-N-(((1r,4r)-4-(methylsulfonyl)cyclohexyl)methyl)-1H-pyrazole-3-carboxamide] | 
4 | 0.18 |  | 0.85 | COc1cc(N[C@H](C)C(F)(F)F)ccc1-c1c(Cl)c(C(=O)NC[C@H]2CC[C@H](S(C)(=O)=O)CC2)nn1CC(C)(C)O [Example 202, 4-Chloro-1-(2-hydroxy-2-methylpropyl)-5-(2-methoxy-4-(((R)-1,1,1-trifluoropropan-2-yl)amino)phenyl)-N-(((r,4R)-4-(methylsulfonyl)cyclohexyl)methyl)-1H-pyrazole-3-carboxamide] | inhibition at 6 µM (full-length human RORγt; HEK-293T): 93%
5 | 0.013 | 102 | 0.053 | CCn1nc(C(=O)NC[C@H]2CC[C@H](S(C)(=O)=O)CC2)c(Cl)c1-c1ccc(N[C@H](C)C(F)(F)F)cc1C(C)C [Example 204, 4-Chloro-1-ethyl-5-(2-isopropyl-4-(((R)-1,1,1-trifluoropropan-2-yl)amino)phenyl)-N-(((1r,4R)-4-(methylsulfonyl)cyclohexyl)methyl)-1H-pyrazole-3-carboxamide] | 
6 | 0.0054 |  | 0.029 | CCOc1cc(N[C@H](C)C(F)(F)F)ccc1-c1c(Cl)c(C(=O)NC[C@H]2CC[C@H](S(C)(=O)=O)CC2)nn1CC [Example 205, 4-Chloro-5-(2-ethoxy-4-(((R)-1,1,1-trifluoropropan-2-yl)amino)phenyl)-1-ethyl-N-(((1r,4R)-4-(methylsulfonyl)cyclohexyl)methyl)-1H-pyrazole-3-carboxamide] | inhibition at 2 µM (full-length human RORγt; [4]): 104%
7 | 0.007 | 100 | 0.031 | CCc1cc(N[C@H](C)C(F)(F)F)ccc1-c1c(Cl)c(C(=O)NC[C@H]2CC[C@H](S(C)(=O)=O)CC2)nn1CC [Example 206, 4-Chloro-1-ethyl-5-(2-ethyl-4-(((R)-1,1,1-trifluoropropan-2-yl)amino)phenyl)-N-(((1r,4R)-4-(methylsulfonyl)cyclohexyl)methyl)-1H-pyrazole-3-carboxamide] | 
8 | 0.01 |  | 0.04 | CCn1nc(C(=O)NC[C@H]2CC[C@H](S(C)(=O)=O)CC2)c(Cl)c1-c1ccc(N[C@H](C)C(F)(F)F)cc1OC(C)C [Example 207, 4-Chloro-1-ethyl-5-(2-isopropoxy-4-(((R)-1,1-trifluoropropan-2-yl)amino)phenyl)-N-(((1r,4R)-4-(methylsulfonyl)cyclohexyl)methyl)-1H-pyrazole-3-carboxamide] | inhibition at 6 µM (full-length human RORγt; HEK-293T): 101%
9 | 0.04 | 87 | 0.15 | CCn1nc(C(=O)NC[C@H]2CC[C@H](S(C)(=O)=O)CC2)c(Cl)c1-c1ccc(N2CC(C(F)(F)F)C2)cc1OC [Example 208, 4-Chloro-1-ethyl-5-(2-methoxy-4-(3-(trifluoromethyl)azetidin-1-yl)phenyl)-N-(((1r,4r)-4-(methylsulfonyl)cyclohexyl)methyl)-1H-pyrazole-3-carboxamide] | 
10 | 0.0074 | 81 | 0.033 | CCn1nc(C(=O)NC[C@H]2CC[C@H](S(C)(=O)=O)CC2)c(Cl)c1-c1ccc(OC(C)C(F)(F)F)cc1OC (stereo partly drawn) [Example 212, 4-Chloro-1-ethyl-5-(2-methoxy-4-((1,1,1-trifluoropropan-2-yl)oxy)phenyl)-N-(((1r,4r)-4-(methylsulfonyl)cyclohexyl)methyl)-1H-pyrazole-3-carboxamide] | 
11 | 0.034 | 77 | 0.077 | CCn1nc(C(=O)NC[C@H]2CC[C@H](S(C)(=O)=O)CC2)c(Cl)c1-c1ccc(OCCC(F)(F)F)cc1OC [Example 213, 4-Chloro-1-ethyl-5-(2-methoxy-4-(3,3,3-trifluoropropoxy)phenyl)-N-(((1r,4r)-4-(methylsulfonyl)cyclohexyl)methyl)-1H-pyrazole-3-carboxamide] | 
12 | 0.039 | 79 | 0.084 | CCn1nc(C(=O)NC[C@H]2CC[C@H](S(C)(=O)=O)CC2)c(Cl)c1-c1ccc(OCC(C)(F)F)cc1OC [Example 214, 4-Chloro-5-(4-(2,2-difluoropropoxy)-2-methoxyphenyl)-1-ethyl-N-(((1r,4r)-4-(methylsulfonyl)cyclohexyl)methyl)-1H-pyrazole-3-carboxamide] | 
13 | 0.0066 | 80 | 0.056 | CCn1nc(C(=O)NC[C@H]2CC[C@H](S(C)(=O)=O)CC2)c(Cl)c1-c1ccc(OCC2(C)CC2)cc1OC [Example 215, 4-Chloro-1-ethyl-5-(2-methoxy-4-((1-methylcyclopropyl)methoxy)phenyl)-N-(((1r,4r)-4-(methylsulfonyl)cyclohexyl)methyl)-1H-pyrazole-3-carboxamide] | 
14 | 0.00097 | 107 | 0.028 | CCn1nc(C(=O)NC[C@H]2CC[C@H](S(C)(=O)=O)CC2)c(Cl)c1-c1ccc(NC(C(F)(F)F)C(F)(F)F)cc1OC [Example 216, 4-Chloro-1-ethyl-5-(4-((1,1,1,3,33-hexafluoropropan-2-yl)amino)-2-methoxyphenyl)-N-(((1r,4r)-4-(methylsulfonyl)cyclohexyl)methyl)-1H-pyrazole-3-carboxamide] | 
15 | 0.017 |  |  | CCn1nc(C(=O)NC[C@]2(O)CC[C@@H](S(C)(=O)=O)CC2)c(C(F)(F)F)c1-c1ccc(N[C@H](C)C(F)(F)F)cc1OC [Example 217, 1-Ethyl-N-(((1s,4S)-1-hydroxy-4-(methylsulfonyl)cyclohexyl)methyl)-5-(2-methoxy-4-(((R)-1,1,1-trifluoropropan-2-yl)amino)phenyl)-4-(trifluoromethyl)-1H-pyrazole-3-carboxamide] | RORγt (FL) Reporter Assay A or B, % inhibition (full-length human RORγt; 1 μM compound concentration (footnote ***)): 104*** %; IC50 (full-length human RORγt; [5]): 0.013 µM
16 | 0.0063 |  |  | CCn1nc(C(=O)NC[C@H]2CC[C@H](S(C)(=O)=O)CC2)c(C(F)(F)F)c1-c1ccc(N[C@H](C)C(F)(F)F)cc1OC [Example 218, 1-Ethyl-5-(2-methoxy-4-(((R)-1,1,1-trifluoropropan-2-yl)amino)phenyl)-N-(((1r,4R)-4-(methylsulfonyl)cyclohexyl)methyl)-4-(trifluoromethyl)-1H-pyrazole-3-carboxamide] | RORγt (FL) Reporter Assay A or B, % inhibition @ 6 μM (full-length human RORγt): 105%; IC50 (full-length human RORγt; [5]): 0.061 µM
17 | 0.0099 |  | 0.03 | CCn1nc(C(=O)NC[C@H]2CC[C@H](S(C)(=O)=O)CC2)c(Cl)c1-c1ccc(OC2CCC(F)(F)CC2)cc1OC [Example 219, 4-Chloro-5-(4-((4,4-difluorocyclohexyl)oxy)-2-methoxyphenyl)-1-ethyl-N-(((1r,4r)-4-(methylsulfonyl)cyclohexyl)methyl)-1H-pyrazole-3-carboxamide] | inhibition at 0.67 µM (full-length human RORγt; [4]): 98%
18 | 0.43 |  |  | CCn1nc(C(=O)NC[C@]2(O)CC[C@H](S(C)(=O)=O)CC2)c(Cl)c1-c1ccc(N[C@H](C)C(F)(F)F)cc1OC [Example 220, 4-Chloro-1-ethyl-N-(((1r,4R)-1-hydroxy-4-(methylsulfonyl)cyclohexyl)methyl)-5-(2-methoxy-4-(((R)-1,1,1-trifluoropropan-2-yl)amino)phenyl)-1H-pyrazole-3-carboxamide] | RORγt (FL) Reporter Assay A or B, % inhibition @ 6 μM (full-length human RORγt): 90%; IC50 (full-length human RORγt; [5]): 1.1 µM
19 | 0.0025 |  | 0.0093 | CCn1nc(C(=O)NC[C@]2(O)CC[C@@H](S(C)(=O)=O)CC2)c(Cl)c1-c1ccc(CCC(F)(F)F)cc1OC(F)F [Example 221, 4-Chloro-5-(2-(difluoromethoxy)-4-(3,3,3-trifluoropropyl)phenyl)-1-ethyl-N-(((1s,4s)-1-hydroxy-4-(methylsulfonyl)cyclohexyl)methyl)-1H-pyrazole-3-carboxamide] | inhibition at 3 µM (full-length human RORγt; HEK-293T, 3 μM compound concentration (footnote *), read-out: RORγt (FL) Reporter Assay A or B, % inhibition): 90%
